In US4182774A, “Method of inhibiting blood platelet aggregation with 2-amino-3-(5- and 6-)benzoylphenylacetic acids, esters and metal salts thereof” (A. H. Robins Company, Incorporated, priority 1978, dated 1980):

Key:
[1] = system: Collagen-Induced Platelet Aggregation; test: Collagen-induced platelet aggregation after oral dosing of rats (platelet rich plasma 2 h after dose); type: in vivo, rat
Protocol: The procedure used is essentially that as described by Born, J. of Phys. […] Rats were orally administered test drugs and after two hours the rats were bled and platelet rich plasma obtained. Collagen was added to the platelet rich plasma to induce platelet aggregation and comparisons were made between control and treated samples.

[2] = system: collagen-induced platelet aggregation in rabbit plasma; test: Inhibition of collagen-induced platelet aggregation in rabbit plasma; type: cell-based; settings: Table III
Description: ^1 Concentration required to inhibit aggregation by 50%.

[3] = system: Evans Blue-Carrageenan Pleural Effusion; test: Modification of the Evans Blue-Carrageenan Pleural Effusion Assay (anti-inflammatory activity); type: in vivo; settings: relative to 4-amino-3-benzoylphenylacetic acid; method of Sancilio
Protocol: The prior art (South African Patent 68/4682) discloses 4-amino-3-benzoylphenylacetic acid, m.p. 135°-7° C. The compound was prepared and tested for anti-inflammatory activity by the method of Sancilio referred to immediately hereinabove.

[4] = system: Adenosine Diphosphate-Induced Platelet Aggregation-Rabbit Plasma; test: In vitro inhibition of adenosine diphosphate-induced platelet aggregation in rabbit plasma; type: cell-based; settings: Table IV, ADP
Description: Effects on Adenosine Diphosphate-Induced
Platelet Aggregation-Rabbit Plasma

[5] = Table IV comment
[6] = Table I, 10.00 mg/kg PO, rats, collagen
[7] = Table I, 100.00 mg/kg PO, rats, collagen
[8] = Table I, 31.60 mg/kg PO, rats, collagen
[9] = Oryctolagus cuniculus, Platelet, 1.0 mM, read-out: Percent Inhibition

Nc1c(CC(=O)O)cc(Cl)cc1C(=O)c1ccccc1 [Example 6, 2-Amino-3-benzoyl-5-chlorophenylacetic Acid Hemihydrate]
Percent Reduction in Aggregation [1, 6]: -36%
Percent Reduction in Aggregation [1, 7]: -76%

Nc1c(CC(=O)O)cccc1C(=O)c1ccc(Cl)cc1 [Example 14, Sodium 2-amino-3-(4-chlorobenzoyl)phenylacetate Hydrate]
Percent Reduction in Aggregation [1, 8]: -27%
Percent Reduction in Aggregation [1, 7]: -65%

Nc1c(CC(=O)O)cccc1C(=O)c1ccccc1 [Example 27, Sodium 2-Amino-3-benzoylphenylacetate Hydrate]
Percent Reduction in Aggregation ([1]; Table I, 0.00032 mg/kg PO, rats, collagen): -76%
Percent Reduction in Aggregation ([1]; Table I, 1.30 mg/kg PO, rats, collagen): -44%
Percent Reduction in Aggregation ([1]; Table I, 5.10 mg/kg PO, rats, collagen): -68%
Percent Reduction in Aggregation [1, 7]: -77%

Nc1c(CC(=O)O)cccc1C(=O)c1ccccc1 [Example 25, Magnesium 2-amino-3-benzoylphenylacetate Trihydrate]
Percent Reduction in Aggregation ([1]; Table I, 0.20 mg/kg PO, rats, collagen, Trihydrate, 0.2 mg/kg): -25%

CN(C)c1c(CC(=O)O)cccc1C(=O)c1ccccc1 [Example 12, 2-Dimethylamino-3-benzoylphenylacetic Acid]
Percent Reduction in Aggregation [1, 8]: -56%

Nc1c(CC(=O)O)cccc1C(=O)c1ccccc1 [Example 16, Potassium 2-amino-3-benzoylphenylacetate Hydrate]
Percent Reduction in Aggregation ([1]; Table I, 0.20 mg/kg PO, rats, collagen, Hydrate, 0.2 mg/kg): -56%

CCOC(=O)Cc1cccc(C(=O)c2ccccc2)c1N [Example 9, Ethyl 2-amino-3-benzoylphenylacetate]
Percent Reduction in Aggregation [1, 6]: -49%
Percent Reduction in Aggregation [1, 7]: -75%

O=C(O)c1ccccc1Nc1cccc(C(F)(F)F)c1 [Flufenamic Acid]
Estimated IC50 (concentration required to inhibit aggregation by 50%) [2]: 2 µM

Nc1c(CC(=O)O)cccc1C(=O)c1ccccc1 [Example 3, 2-Amino-3-benzoylphenylacetic Acid]
Anti-inflammatory activity, times the activity of the prior art 4-amino-3-benzoylphenylacetic acid [3]: about 39 times

O=C(O)c1ccccc1O [Salicyclic Acid]
Percent Inhibition ([4]; 0.05 mM): 7%
Percent Inhibition ([4]; 0.50 mM): 7%
Percent Inhibition ([4]; 1.0 mM): 12%
Percent Inhibition ([4]; 10.0 mM): 20%
Comment: solubility precludes higher testing [5]: precludes higher

Nc1cccc(C(=O)c2ccccc2)c1CC(=O)O [2-amino-6-benzoylphenylacetic acid]
Anti-inflammatory activity, times the activity of the prior art 4-amino-3-benzoylphenylacetic acid [3]: ~3 times

CCCCC1C(=O)N(c2ccccc2)N(c2ccccc2)C1=O [Phenylbutazone]
Percent Reduction in Aggregation ([1]; Table II, 50.0 mg/kg PO, 2 rats): -74%
Estimated IC50 (concentration required to inhibit aggregation by 50%) [2]: 150 µM
inhibition at 400 µM ([4]; Oryctolagus cuniculus, Platelet, 0.4 mM, read-out: Percent Inhibition): 3%
inhibition at 800 µM ([4]; Oryctolagus cuniculus, Platelet, 0.8 mM, read-out: Percent Inhibition): 2%

COc1ccc(C(=O)c2cccc(CC(=O)O)c2N)cc1 [Example 24, 2-Amino-3-(4-methoxybenzoyl)phenylacetic Acid]
Percent Reduction in Aggregation ([1]; Table I, 0.00063 mg/kg PO, rats, collagen): -73%
Percent Reduction in Aggregation ([1]; Table I, 4.00 mg/kg PO, rats, collagen): -88%
Percent Reduction in Aggregation ([1]; Table I, 25.00 mg/kg PO, rats, collagen): -71%
Percent Reduction in Aggregation [1, 7]: -81%

Nc1c(CC(=O)[O-])cccc1C(=O)c1ccccc1.[Na+] [sodium 2-amino-3-benzoylphenylacetate]
Anti-inflammatory activity, times the activity of the prior art 4-amino-3-benzoylphenylacetic acid [3]: ~48 times

CC(C(=O)[O-])c1cccc(C(=O)c2ccccc2)c1N.O.[Na+] (stereo not drawn) [Example 15, Sodium 2-amino-3-benzoyl-α-methylphenylacetate Hydrate]
Percent Reduction in Aggregation ([1]; Table I, 3.00 mg/kg PO, rats, collagen): -56%
Percent Reduction in Aggregation [1, 8]: -48%
Percent Reduction in Aggregation [1, 7]: -76%

Nc1ncnc2c1ncn2[C@@H]1O[C@H](CO)[C@@H](O)[C@H]1O [Adenosine]
inhibition at 1000 µM [4, 9]: 84%

CC(=O)Oc1ccccc1C(=O)O [Acetylsalicylic Acid, reference compound]
Percent Reduction in Aggregation ([1]; Table II, 316.0 mg/kg PO, 2 rats): -74%
Estimated IC50 (concentration required to inhibit aggregation by 50%) [2]: 23 µM

Nc1c(CC(=O)O)cccc1C(=O)c1ccccc1 [Example 8, Sodium 2-amino-3-benzoylphenylacetate Dihydrate]
Percent Reduction in Aggregation ([1]; Table I, 8.00 mg/kg PO, rats, collagen): -63%
Percent Reduction in Aggregation ([1]; Table II, 8.0 mg/kg PO, 3 rats): -63%
Estimated IC50 (concentration required to inhibit aggregation by 50%) [2]: 0.2 µM
Estimated IC50 (concentration required to inhibit aggregation by 50%), value in parentheses [2]: 0.2 µM
inhibition at 100 µM ([4]; Oryctolagus cuniculus, Platelet, 0.1 mM, read-out: Percent Inhibition): 4%
inhibition at 1000 µM [4, 9]: 8%
inhibition at 10000 µM ([4]; Oryctolagus cuniculus, Platelet, 10.0 mM, read-out: Percent Inhibition): 82%
Estimated IC50 (Comment) [4]: 4000 µM
